Calls of active or inactive are those of the source. No cut-off for these calls is given here.
Assays:
[1] = Oral bioavailability in rat at 500 mg/kg; format: ADME, organism-based; conditions: in vivo
[2] = Bioavailability in rat at 1 mg/kg, iv and 5 mg/kg, po; format: ADME, organism-based; conditions: in vivo
Mus musculus [3] = test: Inhibition of CP-55940-induced hypothermia in ICR mouse at 1 mg/kg, sc administered 15 mins before CP-55940 challenge measured after 65 mins; format: functional, organism-based; parameters: dose 1 mg/kg
[4] = Volume of distribution at steady state in rat at 1 mg/kg, iv and 5 mg/kg, po; format: ADME, organism-based; conditions: in vivo, read-out: Vdss
Rattus norvegicus [5] = organism: Rattus norvegicus; test: Anorectic activity in acute food intake rat model assessed as increase in energy expenditure; format: functional, organism-based
Mus musculus [6] = test: Inhibition of CP-55940-induced catalepsy in ICR mouse at 1 mg/kg, sc administered 15 mins before CP-55940 challenge measured after 90 mins; format: functional, organism-based; parameters: dose 1 mg/kg
Mus musculus [7] = test: Inhibition of CP-55940-induced locomotor activity in ICR mouse at 1 mg/kg, sc administered 15 mins before CP-55940 challenge measured after 25 mins; format: functional, organism-based; parameters: dose 1 mg/kg
Rattus norvegicus [8] = test: Toxicity in po dosed rat after 4 days; format: organism-based; conditions: in vivo, 96 h
Mus musculus [9] = test: Inhibition of CP-55940-induced analgesia in ICR mouse at 1 mg/kg, sc administered 15 mins before CP-55940 challenge measured after 45 mins by hot plate method; format: functional, organism-based; parameters: dose 1 mg/kg
[10] = Solubility in sodium taurocholate/phosphatidyl choline salt medium; format: physicochemical
Rattus norvegicus [11] = organism: Rattus norvegicus; test: Anorectic activity in acute food intake rat model assessed as increase in fat oxidation; format: functional, organism-based
[12] = Half life in rat at 1 mg/kg, iv and 5 mg/kg, po; format: ADME, organism-based; conditions: in vivo
Rattus norvegicus [13] = organism: Rattus norvegicus; test: Anorectic activity in acute food intake rat model assessed as decrease in food intake; format: functional, organism-based
Cannabinoid receptor 2 = Cannabinoid receptor 2 (Homo sapiens, UniProt P34972); test: Binding affinity to CB2 receptor
Cannabinoid receptor 2, sequence (P34972 whole entry): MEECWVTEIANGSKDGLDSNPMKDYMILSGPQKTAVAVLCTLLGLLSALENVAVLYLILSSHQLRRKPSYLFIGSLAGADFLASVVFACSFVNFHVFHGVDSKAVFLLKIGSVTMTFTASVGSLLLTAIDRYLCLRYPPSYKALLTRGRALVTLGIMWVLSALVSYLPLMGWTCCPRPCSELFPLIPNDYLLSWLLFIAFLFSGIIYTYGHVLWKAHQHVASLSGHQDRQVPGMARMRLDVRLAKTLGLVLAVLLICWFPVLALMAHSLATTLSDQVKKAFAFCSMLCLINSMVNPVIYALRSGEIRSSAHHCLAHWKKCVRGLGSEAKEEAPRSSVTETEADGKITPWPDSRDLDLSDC

Rattus norvegicus [14] = organism: Rattus norvegicus; test: Toxicity in Sprague-Dawley rat assessed as behavioral side effects and rapid respiration at concentration >=10 fold of plasma level; format: organism-based; conditions: in vivo
[15] = Aqueous solubility of the compound; format: physicochemical; conditions: buffer
Cannabinoid receptor 1 [16] = biological target: T1, Cannabinoid receptor 1 (Homo sapiens, UniProt P21554); format: functional, cell-based, CHO-K1
T1 sequence (P21554 whole entry): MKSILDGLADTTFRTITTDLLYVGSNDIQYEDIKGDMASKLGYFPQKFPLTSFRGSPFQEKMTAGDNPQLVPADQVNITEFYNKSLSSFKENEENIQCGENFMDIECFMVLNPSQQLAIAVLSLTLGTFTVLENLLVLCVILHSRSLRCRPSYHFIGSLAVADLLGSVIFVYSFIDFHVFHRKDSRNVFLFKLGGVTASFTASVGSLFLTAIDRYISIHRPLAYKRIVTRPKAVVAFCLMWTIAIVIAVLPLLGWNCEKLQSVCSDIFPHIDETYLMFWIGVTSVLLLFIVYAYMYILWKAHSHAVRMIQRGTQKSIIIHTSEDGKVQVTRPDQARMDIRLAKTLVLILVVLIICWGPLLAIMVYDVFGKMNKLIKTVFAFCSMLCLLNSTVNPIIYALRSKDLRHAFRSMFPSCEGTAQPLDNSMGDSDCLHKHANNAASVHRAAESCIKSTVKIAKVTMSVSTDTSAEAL
Description: Antagonist activity at human CB1 receptor expressed in CHOK1 cells assessed as inhibition of CP-55940-induced response after 10 mins by GTPgamma[35S] binding assay

Cannabinoid receptor 1 [17] = biological target: T1, Cannabinoid receptor 1; test: Binding affinity to CB1 receptor
Rattus norvegicus [18] = test: Antiobesity activity in fast-induced refeeding Sprague-Dawley rat model assessed as reduction in food intake at 3 mg/kg, po administered 30 mins prior to food intake measured every 10 mins for 2 hrs; format: functional; parameters: scale not given: the % may be the effect or the level left
Mus musculus [19] = test: Antiobesity activity in diet-induced obese mouse assessed as reduction in weight gain at 3 mg/kg, po for 7 days; format: functional; parameters: scale not given: the % may be the effect or the level left
Mus musculus [20] = test: Antiobesity activity in diet-induced obese mouse assessed as reduction in food intake at 3 mg/kg, po for 7 days; format: functional; parameters: scale not given: the % may be the effect or the level left
Mus musculus [21] = test: Antiobesity activity in diet-induced obese mouse assessed as reduction in weight gain at 1 mg/kg, po for 7 days; format: functional; parameters: scale not given: the % may be the effect or the level left
Rattus norvegicus [22] = test: Inhibition of CP-55940-induced hypothermia in rat at >=1 mg/kg, sc administered 15 mins before CP-55940 challenge measured after 65 mins
Rattus norvegicus [23] = test: Antiobesity activity in fast-induced refeeding Sprague-Dawley rat model assessed as reduction in food intake at 1 mg/kg, po administered 30 mins prior to food intake measured every 10 mins for 2 hrs; format: functional; parameters: scale not given: the % may be the effect or the level left
Rattus norvegicus [24] = test: Inhibition of CP-55940-induced analgesia in rat at >=1 mg/kg, sc administered 15 mins before CP-55940 challenge measured after 45 mins by hot plate method
Rattus norvegicus [25] = test: Inhibition of CP-55940-induced catalepsy in rat at >=1 mg/kg, sc administered 15 mins before CP-55940 challenge measured after 90 mins
Rattus norvegicus [26] = test: Inhibition of CP-55940-induced locomotor activity in rat at >=1 mg/kg, sc administered 15 mins before CP-55940 challenge measured after 25 mins
[27] = Oral bioavailability in rat up to 50 mg/kg; format: ADME, organism-based; conditions: in vivo
Mus musculus [28] = test: Antiobesity activity in diet-induced obese mouse assessed as reduction in food intake at 1 mg/kg, po for 7 days; format: functional; parameters: scale not given: the % may be the effect or the level left

Ki (Cannabinoid receptor 2) [µM]	Ki (Cannabinoid receptor 1 [16]) [nM]	Ki (Cannabinoid receptor 1 [17]) [nM]	Compound	further results
> 10	–	–	CC(F)(F)CN1CCc2c(nn(-c3ccccc3Cl)c2-c2ccc(Cl)cc2)C1=O	bioavailability [1]: 50%; bioavailability [2]: 99%; Activity (Mus musculus [3]): Active; Vd [4]: 2.6 L/kg; Activity (Rattus norvegicus [5]): Active; Activity (Mus musculus [6]): Active; Activity (Mus musculus [7]): Active; Activity (Rattus norvegicus [8]): Non-toxic; Activity (Mus musculus [9]): Active; solubility [10]: 18.5 ugA/ml; Activity (Rattus norvegicus [11]): Active; half-life [12]: 216 min; Activity (Rattus norvegicus [13]): Dose-dependent effect; Activity (Rattus norvegicus [14]): Non-toxic; solubility [15]: 0.2 ugA/ml
6.81	11	4.7	CC(C)(C)N1CCc2c(nn(-c3ccccc3Cl)c2-c2ccc(Cl)cc2)C1=O	–
> 10	5.5	2.5	CC(C)N1CCc2c(nn(-c3ccccc3Cl)c2-c2ccc(Cl)cc2)C1=O	–
–	–	–	Cc1c(C(=O)NN2CCCCC2)nn(-c2ccc(Cl)cc2Cl)c1-c1ccc(Cl)cc1 [RIMONABANT]	Activity (Rattus norvegicus [18]): 43%; Activity (Mus musculus [19]): 5.2%; Activity (Mus musculus [20]): 21%
23.4	25	4.7	CCN1CCc2c(nn(-c3ccccc3Cl)c2-c2ccc(Cl)cc2)C1=O	–
> 10	1.5	1.9	O=C1c2nn(-c3ccccc3Cl)c(-c3ccc(Cl)cc3)c2OCCN1CC(F)(F)F	–
–	–	–	CC(F)(F)CN1CCOc2c(nn(-c3ccccc3Cl)c2-c2ccc(Cl)cc2)C1=O	Activity (Mus musculus [21]): 5.9%; Activity (Rattus norvegicus [22]): Active; Activity (Rattus norvegicus [23]): 40%; Activity (Rattus norvegicus [24]): Active; bioavailability [2]: 42%; Activity (Rattus norvegicus [25]): Active; Activity (Rattus norvegicus [26]): Active; Vd [4]: 2.6 L/kg; bioavailability [27]: 51%; Activity (Mus musculus [28]): 23%
> 10	3.1	1.7	O=C1c2nn(-c3ccccc3Cl)c(-c3ccc(Cl)cc3)c2CCN1CC(F)(F)F	–
–	–	30	CC(F)(F)CN1CCc2c(nn(-c3ccccc3Cl)c2-c2ccc(Cl)cc2)C1	–
–	–	24	O=C1c2nn(-c3ccccc3Cl)c(-c3ccc(Cl)cc3)c2CCN1C1CCCC1	–
1.78	9.8	2.5	CC(C)CN1CCc2c(nn(-c3ccccc3Cl)c2-c2ccc(Cl)cc2)C1=O	–
> 10	4.8	1.3	CC(C)N1CCOc2c(nn(-c3ccccc3Cl)c2-c2ccc(Cl)cc2)C1=O	–
> 10	–	–	Cc1nc2c(-c3ccc(Cl)cc3)n(-c3ccccc3Cl)nc2c(=O)n1CC(F)(F)F	Activity (Rattus norvegicus [14]): Toxic
> 10	0.7	1.4	CCC(F)(F)CN1CCOc2c(nn(-c3ccccc3Cl)c2-c2ccc(Cl)cc2)C1=O	–
0.162	–	–	COC(C)(C)CN1CCc2c(nn(-c3ccccc3Cl)c2-c2ccc(Cl)cc2)C1=O	–

— ChEMBL document CHEMBL1138462 (J Med Chem, 2009)
